ChEMBL document CHEMBL1159371, “Trisphaerolide A, a novel polyketide from the Dominican sponge Erylus trisphaerus” (J Nat Prod, 2003)
In brackets after ≈: the same amount, converted by molar mass. Activity calls are given as the source filed them. The calls are words filed in the database; no cut-off is given here.

Tests used:
MCF7 [1] = assay: Cell cycle arrest in human MCF7 cells by G2 checkpoint inhibition assay; format: functional, cell-based
MCF7 [2] = assay: Cytotoxicity against human MCF7 cells; format: functional, cell-based

## C[C@]1(O)CC(=O)O[C@](C)(CCCCCCCCC/C=C/Cc2ccccc2)C1 [TRISPHAEROLIDE A]
MCF7 [1]
  Activity: inactive
MCF7 [2]
  IC50: 30 µg/mL (≈ 77.6 µM)
